One series deals with male Sprague Dawley rats. The experiment in a line: Pro-convulsant testing, acute treatment, PTZ infusion. Type of series: in vivo, rat. To be noted: 10.0 mg/kg IP 30 min prior to PTZ infusion; post hoc tests. As to the method: Sixty naive male Sprague Dawley rats (225-265 g) housed in groups of four with food and water freely available, served as subjects. The rats were assigned to one of six groups and given: Vehicle or 0.5, 1.0, 2.0, 4.0 mg/kg of […] or 10.0 mg/kg of the non-selective receptor inverse agonist, CGS 8216, a known pro-convulsant agent. Vehicle, FG 8094 or CGS 8216 was administered IP 30 min prior to an infusion of the convulsant, pentylenetetrazole (PTZ, 40 mg/ml). PTZ was infused into the tail vein of the rat at the rate of 1.0 ml/min. The latency to clonic and tonic seizure were recorded and the threshold to each was calculated using the equation: Threshold dose=infusion rate (ml/s)×PTZ (mg/ml)×(1000/rats weight)×latency(s).

Series [1] deals with α1 and α5-containing receptors. The following applies: cited from earlier work.
The target in another series is T1, α3β3γ2 (Homo sapiens, UniProt P18507+P34903).
T1 construct: expressed in transfected cells
T1 sequence (P34903 29-492): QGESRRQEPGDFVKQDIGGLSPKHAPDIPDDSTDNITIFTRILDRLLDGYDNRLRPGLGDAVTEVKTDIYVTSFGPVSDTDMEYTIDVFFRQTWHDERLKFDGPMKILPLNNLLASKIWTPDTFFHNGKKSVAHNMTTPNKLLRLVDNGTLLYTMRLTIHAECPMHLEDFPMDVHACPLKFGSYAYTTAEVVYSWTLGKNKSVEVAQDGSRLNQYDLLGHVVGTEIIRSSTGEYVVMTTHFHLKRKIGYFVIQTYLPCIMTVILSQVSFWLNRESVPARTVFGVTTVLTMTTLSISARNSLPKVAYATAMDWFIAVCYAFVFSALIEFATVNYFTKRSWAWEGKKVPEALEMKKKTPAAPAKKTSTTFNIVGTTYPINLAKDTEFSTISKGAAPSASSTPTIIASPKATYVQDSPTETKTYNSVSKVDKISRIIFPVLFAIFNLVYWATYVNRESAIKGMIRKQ
T1 sequence (P28472 26-473 partner): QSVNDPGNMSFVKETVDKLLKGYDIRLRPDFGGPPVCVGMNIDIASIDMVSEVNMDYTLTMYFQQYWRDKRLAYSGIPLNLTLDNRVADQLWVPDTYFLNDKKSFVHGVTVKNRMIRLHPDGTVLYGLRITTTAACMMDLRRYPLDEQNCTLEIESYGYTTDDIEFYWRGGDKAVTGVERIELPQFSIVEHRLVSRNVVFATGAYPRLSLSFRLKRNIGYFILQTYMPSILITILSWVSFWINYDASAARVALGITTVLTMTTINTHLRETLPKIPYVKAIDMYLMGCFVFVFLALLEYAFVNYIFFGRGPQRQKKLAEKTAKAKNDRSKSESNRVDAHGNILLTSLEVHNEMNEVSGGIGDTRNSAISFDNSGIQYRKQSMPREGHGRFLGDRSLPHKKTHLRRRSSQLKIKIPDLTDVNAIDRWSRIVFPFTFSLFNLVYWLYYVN
T1 sequence (P18507 40-467 isoform P18507-1 limits assumed): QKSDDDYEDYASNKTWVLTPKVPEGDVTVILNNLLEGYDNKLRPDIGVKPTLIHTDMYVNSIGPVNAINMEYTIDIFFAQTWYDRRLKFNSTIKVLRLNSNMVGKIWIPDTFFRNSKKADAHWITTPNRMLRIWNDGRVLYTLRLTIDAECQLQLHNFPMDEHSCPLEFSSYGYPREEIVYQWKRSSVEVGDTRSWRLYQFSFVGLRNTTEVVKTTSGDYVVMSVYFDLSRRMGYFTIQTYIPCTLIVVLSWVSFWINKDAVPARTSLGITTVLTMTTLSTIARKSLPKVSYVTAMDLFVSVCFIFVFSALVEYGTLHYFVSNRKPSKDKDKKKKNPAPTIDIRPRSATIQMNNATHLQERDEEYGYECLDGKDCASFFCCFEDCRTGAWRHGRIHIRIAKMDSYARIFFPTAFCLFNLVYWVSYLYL
The experiment in a line: Radioligand binding, membranes of stably transfected cells. To be noted: [3H]Ro 15-1788 at twice Kd; mean±SEM, 3-6 determinations; read-out: Ki α3β3γ2.

Another series has as its target T2, α5β3γ2 (Homo sapiens, UniProt P18507+P31644).
T2 construct: expressed in transfected cells
The description is as above. The following applies: [3H]Ro 15-1788 at twice Kd; mean±SEM, 3-6 determinations; read-out: Ki α5β3γ2.

The target in the next series is T3, α6β3γ2 (Homo sapiens, UniProt P18507+Q16445).
T3 construct: expressed in transfected cells
T3 sequence (Q16445 20-453): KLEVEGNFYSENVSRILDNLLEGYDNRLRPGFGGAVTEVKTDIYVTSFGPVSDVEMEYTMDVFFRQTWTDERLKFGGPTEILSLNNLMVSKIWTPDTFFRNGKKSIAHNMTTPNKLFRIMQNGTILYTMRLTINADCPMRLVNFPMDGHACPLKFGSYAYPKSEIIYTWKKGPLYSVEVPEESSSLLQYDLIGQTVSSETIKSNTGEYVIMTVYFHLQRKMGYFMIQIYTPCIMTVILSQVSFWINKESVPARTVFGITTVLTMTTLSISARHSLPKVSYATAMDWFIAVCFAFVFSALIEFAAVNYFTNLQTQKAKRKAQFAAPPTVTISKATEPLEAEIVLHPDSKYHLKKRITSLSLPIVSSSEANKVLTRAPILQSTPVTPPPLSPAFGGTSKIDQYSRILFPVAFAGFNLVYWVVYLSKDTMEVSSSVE
T3 sequence (P28472 26-473 partner): as the sequence (P28472 26-473 partner) above
T3 sequence (P18507 40-467 isoform P18507-1 limits assumed): as the sequence (P18507 40-467 isoform P18507-1 limits assumed) above
The description is as above. The following applies: [3H]Ro 15-4513 as radioligand; mean±SEM, 3-6 determinations; read-out: Ki α6β3γ2.

The conditions of series [2]: in vivo; cited from earlier work.

T2 sequence (P31644 32-462): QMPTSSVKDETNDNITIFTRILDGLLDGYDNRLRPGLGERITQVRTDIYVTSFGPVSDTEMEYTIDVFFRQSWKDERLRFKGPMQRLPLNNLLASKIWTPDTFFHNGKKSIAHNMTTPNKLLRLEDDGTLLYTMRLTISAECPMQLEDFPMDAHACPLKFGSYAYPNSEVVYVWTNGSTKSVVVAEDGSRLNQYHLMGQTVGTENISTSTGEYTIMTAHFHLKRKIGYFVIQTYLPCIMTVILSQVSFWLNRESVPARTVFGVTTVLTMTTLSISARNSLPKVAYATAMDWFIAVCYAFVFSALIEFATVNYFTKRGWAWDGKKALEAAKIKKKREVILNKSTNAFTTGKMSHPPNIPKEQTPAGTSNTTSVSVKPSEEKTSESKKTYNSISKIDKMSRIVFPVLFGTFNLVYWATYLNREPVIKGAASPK
T2 sequence (P28472 26-473 partner): as the sequence (P28472 26-473 partner) above
T2 sequence (P18507 40-467 isoform P18507-1 limits assumed): as the sequence (P18507 40-467 isoform P18507-1 limits assumed) above

As for `O=C1C2C=Nc3ccccc3C2=NN1c1ccccc1` (stereo not shown) [CGS 8216, reference compound], the “threshold dose of PTZ to tonic seizures” value in the series on male Sprague Dawley rats is given as “significantly lowered the threshold doses to tonic seizures”.
`Cc1nnc2ccc(-c3cccc(C(F)(F)F)c3)nn12` [CL 218,872]: the “relative affinity α1 versus α5-containing receptors” value in series [1] is listed as “greater anfinity for α1 than for α5-containing receptors”.
The term Ki denotes the equilibrium dissociation constant of an inhibitor or competing ligand from its target. On to `CCOC(=O)c1ncn2c1CN(C)C(=O)c1cc(N=[N+]=[N-])ccc1-2` [Ro 15-4513, reference compound], for which the results for the inhibition constant (Ki) at α3β3γ2, on α5β3γ2 and at α6β3γ2 were 1.28 ± 0.06 nM, 0.24 ± 0.05 nM and 6.5 ± 0.6 nM, respectively.
Take `Cc1ccc(-c2nc3ccc(C)cn3c2CC(=O)N(C)C)cc1` [zolpidem]: the “relative affinity α1 versus α5-containing receptors” value in series [1] is on record as “greater anfinity for α1 than for α5-containing receptors”.
For `COC(=O)c1cc2c(cn1)[nH]c1ccccc12` [β-CCM], the “spatial learning in the Morris watermaze” value in series [2] is reported as “enhanced spatial learning”.

Source of the values: patent US6426343B1, “Preparation and use of a specific GABA-Aα5 receptor ligand for treatment of Alzheimer's disease” (Merck Sharp & Dohme Ltd., priority 1995, dated 2002).
